In US20040005537A1, “Method of identifying toxic agents using differential gene expression” (priority 2000, published 2004):

Test system: rat heart tissue
Test: GENECALLING differential gene expression analysis after dosing of serotonin modulating agents
Format: in vivo, Sprague Dawley rats
Method: Control animals received sterile water or canola oil. The animals were sacrificed 24 hours following the last dose. Liver tissue was dissected from the animals, and total RNA was recovered from the dissected tissue. cDNA was prepared and the resulting samples were processed through using GENECALLING™ differential expression analysis as described in U.S. Pat. No. 5,871,697 and in Shimkets et al., Nature Biotechnology 17:798-803 (1999). The contents of these patents and publications are incorporated herein by reference in their entirety.
Thousands of gene fragments were initially found to be differentially expressed in rat heart tissue in response to serotonin modulating agents in. Genes fragments whose expression levels were modulated greater than ±1.5-fold were selected for further analysis.
Column 6 of Table 1, entitled “Function”, lists the type of classification assigned for the protein, based on its function. The 210 single nucleic acid sequences identified herein, are referred to herein as CARDIOTOX 1-210.

CN1C[C@H](C(=O)N[C@]2(C)O[C@@]3(O)[C@@H]4CCCN4C(=O)[C@H](Cc4ccccc4)N3C2=O)C[C@@H]2c3cccc4[nH]cc(c34)C[C@H]21 [dihydroergotamine]
Effects on Transcription Level: Novel gene fragment, 524 bp, 86% SI to mouse F-box protein FBX6b [AF176526] (CARDIOTOX 1): +1.3 fold | Effects on Transcription Level: Novel gene fragment, 306 bp, 91% SI to mouse low density lipoprotein receptor related protein 4 [AB013874] (CARDIOTOX 2): −1.4 fold | Effects on Transcription Level: Novel gene fragment, 540 bp, 97% SI to mouse skeletal muscle alpha-actin [X03766] (CARDIOTOX 3): +1.2 fold | Effects on Transcription Level: Novel gene fragment, 80 bp (CARDIOTOX 4): −1.4 fold | Effects on Transcription Level: Novel gene fragment, 957 bp, 99% SI to kidney injury associated moleculer HW036 [V80591] (CARDIOTOX 5): −1.4 fold | Effects on Transcription Level: Novel gene fragment, 282 bp, 85% SI to human KIAA1515 protein [AB040948] (CARDIOTOX 6): −1.2 fold | Effects on Transcription Level: Novel gene fragment, 405 bp, 88% SI to human 2-oxoglutarate dehydrogenase [D10523] (CARDIOTOX 7): +1.3 fold | Effects on Transcription Level: UCP2 (CARDIOTOX 8, GenBank AB010743): +1.0 fold | Effects on Transcription Level: Plasma membrane Ca2 + ATPase-isoform 1 (CARDIOTOX 9, GenBank J03753): −1.4 fold | Effects on Transcription Level: Novel gene fragment, 242 bp, 97% SI to mouse HSP86 heat-shock protein [X16857] (CARDIOTOX 10): +1.0 fold | Effects on Transcription Level: Novel gene fragment, 280 bp, 65% SI to human TRF1-interacting, ankyrin-related ADP-ribose polymerase [AF082556] (CARDIOTOX 11): +1.3 fold | Effects on Transcription Level: Novel gene fragment, 348 bp, 88% SI to mouse Sec61 protein complex gamma subunit [U11027] (CARDIOTOX 12): +1.4 fold | Effects on Transcription Level: Novel gene fragment 553 bp, 93% SI to mouse Sid329 [AB024984] (CARDIOTOX 13): +1.2 fold | Effects on Transcription Level: Kruppel-like transcription factor (CARDIOTOX 14, GenBank AB020759): +1.2 fold | Effects on Transcription Level: Ribosomal protein L3 (CARDIOTOX 15, GenBank X62166): +1.4 fold | Effects on Transcription Level: Glucose-regulated protein (GRP) 75 (CARDIOTOX 16, GenBank S78556): +1.2 fold | Effects on Transcription Level: Immunoglobulin heavy chain binding protein (BiP) (CARDIOTOX 17, GenBank M14050): +1.2 fold | Effects on Transcription Level: Membrane-spannining proteoglycan NG2 (CARDIOTOX 18, GenBank X56541): −1.4 fold | Effects on Transcription Level: Novel gene fragment, 1294 bp, 96% SI to mouse Sui 1 (elF) homolog [AF129888] (CARDIOTOX 19): +1.1 fold | Effects on Transcription Level: Novel gene fragment, 723 bp, 85% SI to human translation initiation factor elF3 p40 subunit [U54559] (CARDIOTOX 20): +1.2 fold | Effects on Transcription Level: Novel gene fragment, 1324 bp, 76% SI to human flavoprotein subunit of complex II [D30648] (CARDIOTOX 21): +1.3 fold | Effects on Transcription Level: Novel gene fragment, 852 bp, 81% SI to human vacuolar proton-ATPase subunit M9.2 [Y15286] (CARDIOTOX 22): +1.4 fold | Effects on Transcription Level: Novel gene fragment, 178 bp, 91% SI to mouse myosin light chain-2 isoform MLC-2a [S70785] (CARDIOTOX 23): +1.2 fold | Effects on Transcription Level: Novel gene fragment, 167 bp, 90% SI to mouse Rab20 [X80332] (CARDIOTOX 24): +1.2 fold | Effects on Transcription Level: Novel gene fragment, 1070 bp, 80% SI to human muscle-specific protein [AF249873] (CARDIOTOX 25): +1.2 fold | Effects on Transcription Level: Novel gene fragment, 1143 bp, 82% SI to human sarcoma amplified sequence (SAS) [U01160] (CARDIOTOX 26): +1.4 fold | Effects on Transcription Level: Novel gene fragment, 74 bp,75% SI to human secreted protein [X30160] (from patent database)/[X97578] (from patent database)/potential cytokine) (CARDIOTOX 27): +1.4 fold | Effects on Transcription Level: Novel gene fragment, 408 bp, 90% SI to human CGI-07 protein [AF132941] (CARDIOTOX 28): +1.2 fold | Effects on Transcription Level: Novel gene fragment, 618 bp, 95% SI to rat progression related cDNA, ZNPE-120 3′ end partial sequence [patent database X90805] (CARDIOTOX 29): +1.0 fold | Effects on Transcription Level: Novel gene fragment, 717 bp (CARDIOTOX 30): +1.2 fold | Effects on Transcription Level: Novel gene fragment, 546 bp (CARDIOTOX 31): −1.0 fold | Effects on Transcription Level: Novel gene fragment, 920 bp, 91% SI to human HSPC061 [AF161546] (CARDIOTOX 32): +1.3 fold | Effects on Transcription Level: Novel gene fragment, 203 bp, 92% SI to rabbit sarcoplasmic reticulum glycoprotein [J04480] (CARDIOTOX 33): −1.1 fold | Effects on Transcription Level: Novel gene fragment, 178 bp, 68% SI to mouse IgG receptor (beta-Fc-gamma-RII)[M63159] (CARDIOTOX 34): +1.2 fold | Effects on Transcription Level: Ribosomal protein L6 (CARDIOTOX 35, GenBank X87107): +1.4 fold | Effects on Transcription Level: CAP2 protein (adenylyl cyclase-associated protein 2) (CARDIOTOX 36, GenBank U31935): +1.2 fold | Effects on Transcription Level: Alpha-platelet-derived growth factor receptor (CARDIOTOX 37, GenBank M63837): −1.0 fold | Effects on Transcription Level: Rab GD1 alpha protein (CARDIOTOX 38, GenBank X74402): −1.1 fold | Effects on Transcription Level: PKC-zeta-interacting protein (CARDIOTOX 39, GenBank Y08355): +1.2 fold | Effects on Transcription Level: ERK or MAP kinase (CARDIOTOX 40, GenBank X65198): +1.4 fold | Effects on Transcription Level: Peroxisomal multifunctional enzyme type II (CARDIOTOX 41, GenBank U37486): +1.2 fold | Effects on Transcription Level: HBP23 (heme-binding protein 23 kDa) (CARDIOTOX 42, GenBank D30035): +1.3 fold | Effects on Transcription Level: Caveolae-associated protein (CARDIOTOX 43, GenBank U90725): +1.3 fold | Effects on Transcription Level: Prenylated rab acceptor 1 (PRA1) (CARDIOTOX 44, GenBank AF025506): +1.0 fold | Effects on Transcription Level: Novel gene fragment, 337 bp, 88% SI to rabbit cardiac ryanodine receptor (RyR-2)[U50465] (CARDIOTOX 45): −2.5 fold | Effects on Transcription Level: Novel gene fragment, 81 bp, 85% SI to human titin [X90568] (CARDIOTOX 46): −2.8 fold | Effects on Transcription Level: Novel gene fragment, 428 bp, 86% SI to human titin [X90568] (CARDIOTOX 47): −1.7 fold | Effects on Transcription Level: Novel gene fragment, 374 bp, 88% SI to human titin [X90568] (CARDIOTOX 48): −5.5 fold | Effects on Transcription Level: Novel gene fragment, 428 bp, 85% SI to human titin [90568] (CARDIOTOX 49): −3.8 fold | Effects on Transcription Level: Novel gene fragment, 1216 bp, 93% SI to mouse mircotubule-associated protein (MAP) 1B protein [AF115776] (CARDIOTOX 50): −1.5 fold | Effects on Transcription Level: Novel gene fragment, 1115 bp, 83% SI to human KIAA0549 protein [AB011121] (CARDIOTOX 51): −1.5 fold | Effects on Transcription Level: Novel gene fragment, 153 bp (CARDIOTOX 52): −1.7 fold | Effects on Transcription Level: Novel gene fragment, 89 bp, 93% SI to human putative glialblastoma cell differentiation-related protein (GBDR1) [AF068195] (CARDIOTOX 53): +1.5 fold | Effects on Transcription Level: Rho-associated kinase beta (CARDIOTOX 54, GenBank U61266): −2.6 fold | Effects on Transcription Level: Adenylate kinase 3 (CARDIOTOX 55, GenBank D13062): +1.5 fold | Effects on Transcription Level: Amyloid beta-peptide binding protein (CARDIOTOX 56, GenBank AF049878): +1.7 fold | Effects on Transcription Level: Mitochondrial adenine nuleotide translocator (CARDIOTOX 57, GenBank D12771): +1.8 fold | Effects on Transcription Level: Novel gene fragment, 710 bp, 94% SI to mouse chromatin structural protein homolog Supt5 hp (Supt5 h)[U88539] (CARDIOTOX 58): +2.8 fold | Effects on Transcription Level: Novel gene fragment, 186 bp, 66% SI to human N-acetylglucosaminyltransferase 1 (GlcNAc-TI)[M55621] (CARDIOTOX 60): −1.5 fold | Effects on Transcription Level: Novel gene fragment, 238 bp, 95% SI to mouse MAP kinase-activated protein kinase 2 [X76850] (CARDIOTOX 61): −1.5 fold | Effects on Transcription Level: Novel gene fragment, 173 bp, 70% SI to G protein-coupled receptor kinase GRK4 [X97568] (CARDIOTOX 62): −7.2 fold | Effects on Transcription Level: Novel gene fragment, 133 bp, 77% SI to human apoptosis related protein hSARP3 [patent database: V19114] (CARDIOTOX 63): −2.5 fold | Effects on Transcription Level: Novel gene fragment, 477 bp, 98% SI to peroxisomal phytanoyl-CoA hydroxylase (PHYH) [AF121345] (CARDIOTOX 64): +8.0 fold | Effects on Transcription Level: Novel gene fragment, 413 bp, 95% SI to mouse dihydrolipoamide dehydrogenase (Dld) [U73445] (CARDIOTOX 65): +2.2 fold | Effects on Transcription Level: Novel gene fragment, 726 bp, 76% SI to human succinate dehydrogenase flavoprotein subunit (SDH) [L21936] (CARDIOTOX 66): −3.6 fold | Effects on Transcription Level: Novel gene fragment, 440 bp, 92% SI to mouse cytochrome c oxidase Vllc [X52940] (CARDIOTOX 67): +4.1 fold | Effects on Transcription Level: Novel gene fragment, 276 bp, 80% SI to human titin [X90568] (CARDIOTOX 68): −6.5 fold | Effects on Transcription Level: Novel gene fragment, 149 bp, 70% SI to human titin [X90568] (CARDIOTOX 69): +8.0 fold | Effects on Transcription Level: Novel gene fragment, 467 bp, 94% SI to mouse gelsolin [J04953] (CARDIOTOX 70): −1.6 fold
